In this assay the test system is HT-29 colon cancer cells. In words: O2 consumption rate (MitoXpress assay). The conditions noted are these: compounds at their IC50 (MTT), 24 h. It is filed as cell-based, human. On the procedure: For enzymatic determination of lactate production, confluent tumor cells were incubated with 10 mM glucose for 24 hours. Culture medium was then filtered through centrifugation columns with a 10 KDa cutoff, and L-lactate concentrations were determined on an ISCUSflex analyzer (CMA Microdialysis AB, Solna, Sweden). O2 consumption was determined using the MitoXpress assay according to the manufacturer’s instructions (LuxCell Biosciences, Cork, Ireland). Briefly, after adding the oxygen probe to tumor cells cultured for 24 hours in 96-well microplates with or without the tested compounds, the wells were sealed with mineral oil, and respiration was evaluated using time-resolved fluorescent plate readers. Under these conditions, O2 depletion was translated into an increase in probe phosphorescence signal, and the slope of this signal was used to derive the O2 consumption rate.
Figure 6 Metabolic profiling of human HT29 colon cancer cells treated with cardiotonic steroids. A: Extracellular lactate concentrations and B: O2 consumption rates in HT29 cancer cells treated with the indicated compounds at their IC50in vitro growth inhibitory concentrations (see Table 1). The data (mean ± SEM from triplicates) are expressed in mM lactate accumulated in the extracellular medium after 24 hours and arbitrary units derived from time-resolved fluorescent signal.min^-1.

Regarding `C[C@@H]1O[C@@H](O[C@H]2CC[C@]3(C=O)[C@H]4CC[C@]5(C)[C@@H](c6ccc(=O)oc6)CC[C@]5(O)[C@@H]4CC[C@]3(O)C2)[C@H](O)[C@H](O)[C@H]1O[C@@H]1O[C@H](CO)[C@@H](O)[C@H](O)[C@H]1O` [Hellebrin], the “O2 consumption rate (cell respiration)” value is listed as “significantly reduced”.

These data come from PMC3722118, “Hellebrin and its aglycone form hellebrigenin display similar in vitro growth inhibitory effects in cancer cells and binding profiles to the alpha subunits of the Na^+/K^+-ATPase” (Molecular Cancer, 2013).
